System: Lacrimal gland inflammation-induced dry eye
Assay: Lacrimal gland inflammation-induced dry eye in rabbits (corneal staining, tear breakup time)
Format: in vivo
Conditions: rabbit, topical ocular BID, percent concentration 1
Source text: A more detailed description of the assay used herein may be found in Naglehout, T J et al. 2005, “Preservation of Tear Film Integrity and Inhibition of Corneal Injury by Dexamethasone in a Rabbit Model of Lacrimal Gland Inflammation-Induced Dry Eye,” J. Ocular Pharm. Ther., 21:2. 139-148, the disclosure of which is hereby incorporated by reference as if written herein in its entirety. Rabbits (n=4/group) were randomized into treatment groups and dosed topically BID with maxidex vehicle or test drug beginning one day prior to initiation of dry eye. Each rabbit received bilateral lacrimal gland injections of saline or ConA (300 μg/30 μl) and topical ocular dosing was continued BID throughout the study. Desiccation was initiated 1-2 hours following lacrimal gland injection by placing conscious rabbits in the environmental chamber (10-15% humidity/72° F.). […] Absorbance of the extracted dye was determined at 660 nm. TBUT was quantified in a separate group of treated animals. TBUT was determined by instilling 5 μL sodium fluorescein into the cul de sac and manually blinking the lids to distribute the fluorescein within the tear film. Under slit lamp observation, the eye was held open and the time whereby one or more black spots or streaks appeared in the precorneal tear film was recorded. […]

## COc1ccc2c(Nc3c(Cl)cncc3Cl)cc(=O)[nH]c2c1OC1CCCC1 [Example 1, 8-(Cyclopentyloxy)-4-(3,5-dichloropyridin-4-ylamino)-7-methoxyquinolin-2(1H)-one]
  Activity at Percent Concentration Tested 1: Inac-

Source: patent publication US8258154B2, “Bicyclic heteroaryl inhibitors of PDE4” (Kalypsys Inc., priority 2006, dated 2012)
